Measurements from patent US20250353861A1, “DERIVATIVE OF ARTEMISININ AND PREPARATION METHOD AND USE THEREOF” (SHANGHAI INNOFORTUNE BIOTECH CO. LTD., priority 2022, published 2025).

What was measured:
[1] = test system: corneal neovascularization in New Zealand rabbits with alkali burn; experiment: Effects on corneal neovascularization in New Zealand rabbits with alkali burn; format: in vivo; conditions: 1% eye drops 3 times a day; for Formation of new blood vessels in the cornea (slit-lamp photographs, FIG. 2), comparison of groups: preliminary conclusion from the figures; for Number of New Zealand rabbit eyes with appearance of fluorescein-stained spots / Number of New Zealand rabbit eyes with conjunctival congestion / Number of New Zealand rabbit eyes with corneal edema / Number of New Zealand rabbit eyes with neovascularization: 2 drops, 12 eyes per group (10 for SZY1905-P32)
Experimental: Twenty-four New Zealand rabbits were first given intravenous anesthesia with a chloralhydrate solution at a dose of about 0.5 mL/kg, followed by ocular surface anesthesia with 0.5% tetracaine hydrochloride eye drops. A piece of filter paper with a diameter of about 8 mm was immersed in 1 mol/L NaOH solution for 1 minute to reach saturation. The saturated filter paper was placed in the center of the cornea for 1 minute and then removed, immediately followed by repeatedly rinsing the cornea and the conjunctival sac with 0.9% sodium chloride injection for 1 minute. After that, tobramycin dexamethasone sodium phosphate eye drops were administered. After modeling, the twenty-four animals were divided into four groups, which were: Model group; SZY1905-P30 eye drops-administered group; […] The eye drops were administered 3 times a day, 2 drops each time. The Model group was not administered with any drugs. […] The cornea was then stained with fluorescein sodium, and observed under the slit-lamp microscope and photographed.

[2] = Testing of stability at different pH values (HPLC); format: physicochemical
Experimental: 10 mg of the sample was weighed and 10 mL of an aqueous solution at a different pH value was added, followed by ultrasonic dissolving and filtration. HPLC testing was then performed.

[3] = Testing of solubility at different pH values
Experimental: First, a series of solutions with pH-5-8 were prepared using phosphoric acid and NaOH.

[4] = 1st day of the modeling (0 day of administration)
[5] = 7th day of the modeling (6th day of administration)
[6] = 14th day of the modeling (13th day of administration)

Compound | Formation of new blood vessels in the cornea (slit-lamp photographs, FIG. 2), comparison of groups [1] | Number of New Zealand rabbit eyes with appearance of fluorescein-stained spots [1, 4] | Number of New Zealand rabbit eyes with conjunctival congestion [1, 4] | Number of New Zealand rabbit eyes with corneal edema [1, 4] | Number of New Zealand rabbit eyes with neovascularization [1, 4] | Number of New Zealand rabbit eyes with appearance of fluorescein-stained spots [1, 5] | Number of New Zealand rabbit eyes with conjunctival congestion [1, 5] | Number of New Zealand rabbit eyes with corneal edema [1, 5] | Number of New Zealand rabbit eyes with neovascularization [1, 5] | Number of New Zealand rabbit eyes with appearance of fluorescein-stained spots [1, 6] | Number of New Zealand rabbit eyes with conjunctival congestion [1, 6] | Number of New Zealand rabbit eyes with corneal edema [1, 6] | Number of New Zealand rabbit eyes with neovascularization [1, 6] | Stability, 0 day (%) ([2]; Purified water, 10 mg in 10 mL) | Stability, 8th day (%) ([2]; Purified water, 10 mg in 10 mL) | Stability, 20th day (%) ([2]; Purified water, 10 mg in 10 mL) | Stability, 30th day (%) ([2]; Purified water, 10 mg in 10 mL) | Stability, 0 day (%) ([2]; pH = 5.0, 10 mg in 10 mL) | Stability, 8th day (%) ([2]; pH = 5.0, 10 mg in 10 mL) | Stability, 20th day (%) ([2]; pH = 5.0, 10 mg in 10 mL) | further results
C[C@H]1[C@H](OCCCN)O[C@@H]2O[C@@]3(C)CC[C@H]4[C@H](C)CC[C@@H]1C24OO3 [SZY1905-P32, reference compound] | new vessels have spread to the entire cornea | 10 | 1 | 8 | 0 | 9 | 0 | 4 | 6 | 8 | 0 | 3 | 7 | – | – | – | – | – | – | – | –
C[C@H]1[C@H](OCCC[N+](C)(C)C)O[C@@H]2O[C@@]3(C)CC[C@H]4[C@H](C)CC[C@@H]1C24OO3 [SZY1905-P30, artemisinin quaternary ammonium propyl ether iodate] | can delay the rapid formation of new blood vessels significantly better than the SZY1905-P32 eye drops-administered group | 12 | 2 | 8 | 0 | 6 | 0 | 2 | 3 | 5 | 0 | 1 | 4 | 97.09% | 96.91% | 97.04% | 97.28% | 97.23% | 96.90% | 97.01% | Stability, 30th day (%) ([2]; pH = 5.0, 10 mg in 10 mL): 97.25%; Stability, 0 day (%) ([2]; pH = 6.0, 10 mg in 10 mL): 97.24%; Stability, 8th day (%) ([2]; pH = 6.0, 10 mg in 10 mL): 96.95%; Stability, 20th day (%) ([2]; pH = 6.0, 10 mg in 10 mL): 96.81%; Stability, 30th day (%) ([2]; pH = 6.0, 10 mg in 10 mL): 97.23%; Stability, 0 day (%) ([2]; pH = 7.0, 10 mg in 10 mL): 97.34%; Stability, 8th day (%) ([2]; pH = 7.0, 10 mg in 10 mL): 97.09%; Stability, 20th day (%) ([2]; pH = 7.0, 10 mg in 10 mL): 96.97%; Stability, 30th day (%) ([2]; pH = 7.0, 10 mg in 10 mL): 97.26%; Stability, 0 day (%) ([2]; pH = 8.0, 10 mg in 10 mL): 97.22%; Stability, 8th day (%) ([2]; pH = 8.0, 10 mg in 10 mL): 97.13%; Stability, 20th day (%) ([2]; pH = 8.0, 10 mg in 10 mL): 96.98%; Stability, 30th day (%) ([2]; pH = 8.0, 10 mg in 10 mL): 97.13%; solubility ([3]; aqueous solution adjusted with phosphoric acid and NaOH, 25 °C, pH 5, aqueous buffer): > 1000 µg/mL; solubility ([3]; aqueous solution adjusted with phosphoric acid and NaOH, 25 °C, pH 6, aqueous buffer): > 1000 µg/mL; solubility ([3]; aqueous solution adjusted with phosphoric acid and NaOH, 25 °C, pH 7, aqueous buffer): > 1000 µg/mL; solubility ([3]; aqueous solution adjusted with phosphoric acid and NaOH, 25 °C, pH 8, aqueous buffer): > 1000 µg/mL; solubility ([3]; purified water, 25 °C, water): > 10000 µg/mL
C[C@H]1[C@H](OCCCC[N+](C)(C)C)O[C@@H]2O[C@@]3(C)CC[C@H]4[C@H](C)CC[C@@H]1C24OO3.[I-] [SZY1905-P31, artemisinin quaternary ammonium butyl ether iodate] | can delay the rapid formation of new blood vessels significantly better than the SZY1905-P32 eye drops-administered group | 12 | 2 | 9 | 0 | 7 | 0 | 3 | 3 | 6 | 0 | 3 | 3 | 98.05% | 97.68% | 97.35% | 97.46% | 98.11% | 97.69% | 97.38% | Stability, 30th day (%) ([2]; pH = 5.0, 10 mg in 10 mL): 97.48%; Stability, 0 day (%) ([2]; pH = 6.0, 10 mg in 10 mL): 98.16%; Stability, 8th day (%) ([2]; pH = 6.0, 10 mg in 10 mL): 97.64%; Stability, 20th day (%) ([2]; pH = 6.0, 10 mg in 10 mL): 97.39%; Stability, 30th day (%) ([2]; pH = 6.0, 10 mg in 10 mL): 97.48%; Stability, 0 day (%) ([2]; pH = 7.0, 10 mg in 10 mL): 98.26%; Stability, 8th day (%) ([2]; pH = 7.0, 10 mg in 10 mL): 97.85%; Stability, 20th day (%) ([2]; pH = 7.0, 10 mg in 10 mL): 97.57%; Stability, 30th day (%) ([2]; pH = 7.0, 10 mg in 10 mL): 97.58%; Stability, 0 day (%) ([2]; pH = 8.0, 10 mg in 10 mL): 98.14%; Stability, 8th day (%) ([2]; pH = 8.0, 10 mg in 10 mL): 97.64%; Stability, 20th day (%) ([2]; pH = 8.0, 10 mg in 10 mL): 97.33%; Stability, 30th day (%) ([2]; pH = 8.0, 10 mg in 10 mL): 97.49%; solubility ([3]; Purified water, 25° C. (room temperature)): >10000 µg/mL; solubility ([3]; pH 5.0, 25° C. (room temperature)): >1000 µg/mL; solubility ([3]; pH 6.0, 25° C. (room temperature)): >1000 µg/mL; solubility ([3]; pH 7.0, 25° C. (room temperature)): >1000 µg/mL; solubility ([3]; pH 8.0, 25° C. (room temperature)): >1000 µg/mL
